Laboratory results reported in ChEMBL document CHEMBL4184093, “Effects of newly synthetized isoquinoline derivatives on rat uterine contractility and ROCK II activity” (Bioorg Med Chem Lett, 2018).
pIC50: −log10 of the molar value. Activity calls are given as the source filed them. The calls are words filed in the database; no cut-off is given here.

How the values were obtained:
[1] = tested on: Uterus; assay: Inhibition of oxytocin-induced uterus contraction in non-pregnant Sprague-Dawley rat measured for 300 secs; assay type: functional, tissue-based
[2] = target: Rho-associated protein kinase 2 (Homo sapiens) (UniProt O75116); assay: Inhibition of ROCK2 (unknown origin) at 200 uM using MYPT1 as substrate after 30 mins by immunoassay
[3] = tested on: Uterus; assay: Inhibition of oxytocin-induced uterus contraction in 20 days pregnant Sprague-Dawley rat at 10^-10 to 10^-5 M measured for 300 secs; assay type: functional, tissue-based
[4] = tested on: Uterus; assay: Inhibition of oxytocin-induced uterus contraction in Sprague-Dawley rat during parturition period at 10^-10 to 10^-5 M measured for 300 secs; assay type: functional, tissue-based

Sequence of Rho-associated protein kinase 2 (Homo sapiens) (O75116 whole entry, looked up): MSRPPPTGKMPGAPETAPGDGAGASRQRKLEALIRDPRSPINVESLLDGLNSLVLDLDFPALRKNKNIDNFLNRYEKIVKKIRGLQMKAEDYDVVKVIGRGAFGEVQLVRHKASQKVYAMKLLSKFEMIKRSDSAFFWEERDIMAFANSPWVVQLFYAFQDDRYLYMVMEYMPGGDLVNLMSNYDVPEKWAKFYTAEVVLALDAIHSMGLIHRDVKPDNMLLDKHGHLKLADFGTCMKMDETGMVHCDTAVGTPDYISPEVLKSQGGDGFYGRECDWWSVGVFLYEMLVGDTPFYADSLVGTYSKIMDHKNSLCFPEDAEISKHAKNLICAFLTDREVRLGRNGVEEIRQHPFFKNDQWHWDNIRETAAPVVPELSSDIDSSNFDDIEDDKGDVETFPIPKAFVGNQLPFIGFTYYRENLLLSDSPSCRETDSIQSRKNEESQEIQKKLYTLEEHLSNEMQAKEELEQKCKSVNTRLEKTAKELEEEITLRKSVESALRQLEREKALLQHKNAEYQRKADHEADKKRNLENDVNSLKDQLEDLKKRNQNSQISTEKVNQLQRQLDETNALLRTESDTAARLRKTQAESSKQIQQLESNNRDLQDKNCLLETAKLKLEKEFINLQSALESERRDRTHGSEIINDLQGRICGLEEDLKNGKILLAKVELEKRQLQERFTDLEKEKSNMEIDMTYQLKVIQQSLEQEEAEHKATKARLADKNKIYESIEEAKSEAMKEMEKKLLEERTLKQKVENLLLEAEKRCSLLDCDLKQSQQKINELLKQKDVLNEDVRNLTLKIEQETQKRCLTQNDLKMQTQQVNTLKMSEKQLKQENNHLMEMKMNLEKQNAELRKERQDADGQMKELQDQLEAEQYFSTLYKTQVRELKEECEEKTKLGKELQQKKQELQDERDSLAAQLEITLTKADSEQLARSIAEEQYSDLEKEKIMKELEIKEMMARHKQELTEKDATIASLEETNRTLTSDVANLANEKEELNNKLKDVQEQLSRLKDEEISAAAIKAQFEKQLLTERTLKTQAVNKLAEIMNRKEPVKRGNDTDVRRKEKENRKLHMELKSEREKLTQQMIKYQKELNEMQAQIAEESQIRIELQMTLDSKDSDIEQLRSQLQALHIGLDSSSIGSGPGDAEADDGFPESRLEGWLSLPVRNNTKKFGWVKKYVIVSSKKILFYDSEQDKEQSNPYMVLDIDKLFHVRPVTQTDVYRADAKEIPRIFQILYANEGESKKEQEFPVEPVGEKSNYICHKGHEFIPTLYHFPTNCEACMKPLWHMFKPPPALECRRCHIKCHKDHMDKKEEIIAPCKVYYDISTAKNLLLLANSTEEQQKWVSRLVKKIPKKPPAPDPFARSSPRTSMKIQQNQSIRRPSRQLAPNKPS

Compound | Emax [1] | pIC50 [1] | ROCK2 inhibition activity call (active/not active) [2] | inhibition [3] | inhibition [4]
CCOc1cc2c(cc1OCC)C(CCO)N(C(=S)Nc1cccc(C(F)(F)F)c1)CC2 (stereo not drawn) | 84.7% | 5.97 | – | – | –
COc1cc2c(cc1OC)C1CCO/C(=N\Cc3ccccc3)N1CC2 (stereo not drawn) | 55.1% | 6.28 | – | – | –
COc1cc2c(cc1OC)C(CC#N)N(C(=O)Nc1cccc(C(F)(F)F)c1)CC2 (stereo not drawn) | 72.2% | 5.90 | – | – | –
COc1ccc(CCNC2CCCCC2O)cc1OC (stereo not drawn) | 51.7% | 7.01 | inactive | – | –
C[C@@H](N)[C@H]1CC[C@H](C(=O)Nc2ccncc2)CC1 [Y-27632] | 82.3% | 6.30 | – | – | –
COc1cc2c(cc1OC)C(C(CO)CO)N(C(=O)c1ccc(C(F)(F)F)cc1)CC2 (stereo not drawn) | 66.4% | 6.58 | – | – | –
COc1cc2c(cc1OC)C(C1CCc3nc(N4CCOCC4)[nH]c(=O)c3C1)=NCC2 (stereo not drawn) | 47.3% | 7.62 | inactive | – | –
COc1cc2c(cc1OC)C(c1ccccc1)N(C1CCCC1O)CC2 (stereo not drawn) | 58.8% | 6.21 | – | – | –
COc1cc2c(cc1OC)C(C(CO)CO)N(C1CCCC1)CC2 (stereo not drawn) | 54.5% | 7.07 | inactive | – | –
O=S(=O)(c1cccc2cnccc12)N1CCCNCC1 [FASUDIL] | 87.4% | 6.11 | – | Active | Active
COc1ccc(CCNC(=O)C(C)(C)C)cc1OC | 52.8% | 6.72 | – | – | –
CCOc1ccc(CCN(CCO)C2CCCCC2O)cc1OCC (stereo not drawn) | 46.3% | 7.38 | Active | Active | Active
COc1ccc(Cc2nccc3cc(OC)c(OC)cc23)cc1OC [PAPAVERINE] | 98.5% | 6.38 | – | – | –
COc1cc2c(cc1OC)C1(C)N(CC2)C(c2ccccc2)=NN1c1ccc(Cl)cc1 (stereo not drawn) | 53.2% | 6.59 | – | – | –
COc1cc2c(cc1OC)C1C(CO)COC(=N)N1CC2 (stereo not drawn) | 50.4% | 7.88 | inactive | – | –
COc1cc2c(cc1OC)C1C(C)CN1CC2 (stereo not drawn) | 43.7% | 8.08 | inactive | – | –
COc1cc2c(cc1OC)C(C)N(C1CCCCC1O)CC2 (stereo not drawn) | 45.6% | 7.04 | inactive | – | –
COc1cc2c(cc1OC)C1C(COC(=O)Nc3ccccc3)CN1CC2 (stereo not drawn) | 54.5% | 6.31 | – | – | –
CCOc1ccc(/C=C2\NCCc3cc(OCC)c(OCC)cc32)cc1OCC [DROTAVERINE] | 88.8% | 5.71 | – | – | –
COc1cc2c(cc1OC)C(C(CO)COC(=O)c1ccccc1)N(CCC#N)CC2 (stereo not drawn) | 53.3% | 6.56 | – | – | –
C#CC[N+]12CCc3cc(OC)c(OC)cc3C1C(CO)C2 (stereo not drawn) | 54.5% | 7.49 | inactive | – | –
COc1ccc(CC[N+](C)(CCO)C2CCCCC2)cc1OC (stereo not drawn) | 49.6% | 7.72 | inactive | – | –
COc1cc2c(cc1OC)C(C(CO)CO)N(C(=S)Nc1ccccc1)CC2 (stereo not drawn) | 52.5% | 6.80 | Active | Active | Active
COc1cc2c(cc1OC)C(C(CO)Cc1ccccc1)NCC2 (stereo not drawn) | 76.6% | 6.14 | – | – | –
COc1cc2c(cc1OC)C1C(Cc3ccccc3)CN1CC2 (stereo not drawn) | 57.2% | 6.10 | – | – | –
COc1cc2c(cc1OC)C(C(CO)COC(=O)c1ccccc1)N(C(=S)Nc1ccccc1)CC2 (stereo not drawn) | 83.5% | 5.92 | – | – | –
CCOc1cc2c(cc1OCC)CN(C1CCCCC1O)CC2 (stereo not drawn) | 48% | 7.43 | inactive | – | –
CCOc1cc2c(cc1OCC)C1C(CO)CS/C(=N\c3ccc(C)cc3)N1CC2 (stereo not drawn) | 82.5% | 5.93 | – | – | –
